For series [1], the system named is E. faecalis ATCC 29212. The experiment in a line: Time-kill kinetics. It counts as cell-based, Enterococcus faecalis. The settings on record: for Reduction in viable bacteria (time-kill): 4× MIC (compound 2: 8 µg/mL, 2–4× MIC), 5 h exposure, BHI broth. On the procedure: Time–kill kinetics were established for compounds 2, 5 and 10 in E. faecium ATCC 19434 and E. faecalis ATCC 29212. Prior to the experiments, the isolates were incubated on BHI agar supplemented with 5% calf blood at 37 °C overnight (ON). For each of the strains 1-2 colonies were transferred into 4 mL BHI broth and incubated ON at 37 °C with shaking (180 rpm). OD600 was measured, and then cultures were diluted with BHI broth to an OD600 of 0.05 and grown for approximately 2 h to reach the exponential phase.
One untreated control per strain was prepared. The inoculum was quantified by plating and subsequently enumerated. The initial inocula were approximately 10^7 CFU/mL. Two controls were included, both without bacteria and one including the respective compound without bacteria. All tubes were incubated at 37 °C with shaking (180 rpm). Samples of 100 µL were taken after 1 h, 3 h and 5 h of exposure. Appropriate dilutions were spread onto BHI agar plates and incubated at 37 °C overnight, and then colonies were enumerated. Plates were incubated for 24 h and 48 h, and then checked for the appearance of slow-growing colonies. The experiments were performed with at least three biological replicates for each condition and time point.

The subject of series [2] is enterococci. Kind of series: Checkerboard assay, overall synergy statements. The format is cell-based, Enterococcus faecium and Enterococcus faecalis. The note with it: for Resensitization of two vancomycin-resistant E. faecium isolates toward vancomycin / Sensitization of enterococcal isolates to gentamicin: sub-inhibitory concentrations; for Synergy with conventional antibiotics: vancomycin, gentamicin, ciprofloxacin, linezolid, rifampicin or azithromycin, synergy = FICI ≤ 0.5. The method, then: The strain culture preparation and final volume were the same as in the MIC assay. […] The plates were incubated for 24 h at 37 °C without shaking. […] All experiments were performed in two biological replicates.
To evaluate the effect of the combinations, the fractional inhibitory concentration index (FICI) was calculated for each combination according to:ΣFIC = FICA + FICB = (CA/MICA) + (CB/MICB)
The drug interaction was scored as follows: synergy—FICI ≤ 0.5; no interaction—FICI > 0.5–4; antagonism—FICI > 4 [40].

Series [3] relates to E. faecium 1798. Kind of series: microbe, parasite or virus in culture. It counts as cell-based, Enterococcus faecium. The settings on record: 1798, 24 h.
Series [4] has as its system E. faecium 3978. Kind of series: microbe, parasite or virus in culture. The settings on record: 3978, 24 h. The format is cell-based, Enterococcus faecium.
Series [5] deals with E. faecium 2961. The experiment in a line: microbe, parasite or virus in culture. The settings on record: 2961, 24 h. It counts as cell-based, Enterococcus faecium.
The test system of series [6] is E. faecium D344R. The experiment in a line: microbe, parasite or virus in culture. The format is cell-based, Enterococcus faecium. The settings on record: E. faecium D344R, human clinical isolate; 24 h.
Series [7] is described as follows: Hemolytic activity. The format is cell-based, human. The note with it: human, human red blood cells (washed, 1% suspension), 37 °C, 1% red blood cell suspension. On the procedure:
A suspension of hRBCs (Single-donor human red blood cells—washed; catalogue No. IPLA-W3 from Innovative researchTM) was washed three times with PBS buffer and centrifuged for 5 min at 2500 rpm. A two-fold serial dilution of compounds in PBS buffer was prepared. Plates (conical-bottomed 96-well plates) with 3 replicate wells per dilution, containing 1% red blood cell suspension, were prepared and dosed with the test compound to achieve a final concentration of 400 μg/mL in a total volume of 100 μL. The plates were incubated (37 °C) for 60 min with mild agitation, and then the cells were pelleted by centrifugation at 1500 rpm for 5 min. Then, the supernatants (50 μL) were transferred to a fresh 96-well plate, and then the concentration of hemoglobin was detected by measuring the OD at 405 nm. The OD of cells incubated with 1% SDS achieved 100% hemolysis, while the OD of cells incubated with PBS buffer achieved 0% hemolysis. The concentration tested was 400 μg/mL (only average values are stated in Table 3). The percent hemolysis was calculated by using the formula:Hemolysis(%) = 100 × [(Asample − Aneg.control)/(Apos. control − Aneg.control)]

Series [8] relates to E. faecalis (MV269). The experiment in a line: Membrane integrity, propidium iodide uptake by flow cytometry. The note with it: peptidomimetics at MBC, nisin at MIC; 5 min. The format is cell-based, Enterococcus faecalis. On the procedure:
Membrane integrity was assessed by using a propidium iodide (PI) uptake assay, as previously described. In brief, 2 μL of stationary enterococcal cultures were transferred to Falcon round-bottom tubes (14 mL; Corning), each containing 2 mL fresh BHI medium. Cultures were grown to an OD600 of 0.2 at 37 °C with shaking (180 rpm). […] Then, 15 μL of culture was transferred into 980 μL filtered phosphate-buffered saline, and then stained for 5 min with 5 μL of 0.1 mg/mL PI. After staining, the red fluorescence levels (FL3 channel) in cells were recorded by using a BD Biosciences Accuri C6 flow cytometer (Becton Dickinson). The settings of the flow cytometer were as follows: 25,000 recorded events at an FSC threshold of 15,000, and medium flow rate. The gating of the stained cell population and analysis of flow cytometry data were performed in CFlow (BD Accuri). The assessment of membrane integrity was performed in three biological replicates for each condition.
A general note: Flow cytometry measures light scatter and fluorescence of single cells or particles in a stream.

The subject of series [9] is HepG2 cell line ATCC HB-8065. The experiment in a line: Effect on HepG2 cell viability (MTT assay). The format is cell-based, human. The settings on record: 48 h. On the procedure: The effect of peptidomimetics on mammalian cell viability was determined on the HepG2 cell line ATCC HB-8065. In brief, HepG2 cells were seeded into flat-bottom 96-well plates at a concentration of 5000 cells per well. The cells were incubated for 24 h in a humidified incubator (5% CO2, 37 °C). Subsequently, the medium was removed, and the cells were incubated for 48 h in a humidified incubator (5% CO2, 37 °C) with peptidomimetics in serial dilutions. An MTT assay was then performed; in brief, after incubation with the test compounds, the culture medium was removed and fresh medium with 0.2 mg/mL MTT was then added into each well. After incubation (3 h, 37 °C, 5% CO2), the medium with MTT was removed, and 200 μL dimethyl sulfoxide was added at once to each sample. The absorbance of MTT was measured using the spectrophotometer TECAN Infinite M1000 at 540 nm. The relative viability was calculated by using the formula:ODtreated cells × 100/ODcontrol cells
The IC50 values were calculated using the program Graph Pad Prism 5.0. For all compounds, the test range was 10–1280 μg/mL.
For orientation: Tetrazolium assays rely on reduction of a dye to a coloured formazan, in cell work by metabolically active cells.

The subject of series [10] is E. faecalis 38262. Kind of series: microbe, parasite or virus in culture. The format is cell-based, Enterococcus faecalis. The settings on record: 38262, 24 h.
Series [11] deals with E. faecalis 39002. Kind of series: microbe, parasite or virus in culture. It counts as cell-based, Enterococcus faecalis. The note with it: 39002, 24 h.

From article PMC8197855, “Peptide/β-Peptoid Hybrids with Activity against Vancomycin-Resistant Enterococci: Influence of Hydrophobicity and Structural Features on Antibacterial and Hemolytic Properties” (International Journal of Molecular Sciences, 2021) come the findings set out here.

Converted amounts (≈) assume the structure as drawn.

Turning to `CC(=O)N[C@@H](CCCCNC(=N)N)C(=O)N(CCC(=O)N[C@@H](CCCCNC(=N)N)C(=O)N(CCC(=O)N[C@@H](CCCCNC(=N)N)C(=O)N(CCC(=O)N[C@@H](CCCCNC(=N)N)C(=O)N(CCC(=O)N[C@@H](CCCCNC(=N)N)C(=O)N(CCC(=O)N[C@@H](CCCCNC(=N)N)C(=O)N(CCC(N)=O)[C@@H](C)C1CCCCC1)[C@@H](C)C1CCCCC1)[C@@H](C)C1CCCCC1)[C@@H](C)C1CCCCC1)[C@@H](C)C1CCCCC1)[C@@H](C)C1CCCCC1` [Compound 2, Ac-[hArg-βNsce]6-NH2], in series [1], the “Reduction in viable bacteria (time-kill)” value is listed as “approximately 2 log”. Besides, in series [2], the “Resensitization of two vancomycin-resistant E. faecium isolates toward vancomycin” value (from here on “Resensitization”) is “this was not the case”. Also, the “Sensitization of enterococcal isolates to gentamicin” value (“Sensitization … to gentamicin” below) in series [2] is listed as “did not sensitize”. Moreover, in [2], the “Synergy with conventional antibiotics” value is “no synergy”. In addition, the Minimum inhibitory concentration is 2 µg/mL (≈ 0.922 µM) in series [3]; 2 µg/mL (≈ 0.922 µM) in series [4]; 2 µg/mL (≈ 0.922 µM) in series [5]; 2 µg/mL (≈ 0.922 µM) in series [6]; 4 µg/mL (≈ 1.84 µM) in [10]; 2 µg/mL (≈ 0.922 µM) in series [11]. The same compound displayed a hemolysis at 60 min, 400 µg/mL in series [7] of 98.4%. In addition, the “Propidium iodide (PI) uptake, membrane integrity” value (shortened to “Propidium iodide (PI) uptake”) in series [8] was “significant accumulation of PI”. For the same compound, the “HepG2 IC50” value in series [9] was 15 µg/mL.

As for `CC(=O)N[C@@H](CCCCNC(=N)N)C(=O)N(CCC(=O)N[C@@H](CCCCN)C(=O)N(CCC(=O)N[C@@H](CCCCNC(=N)N)C(=O)N(CCC(=O)N[C@@H](CCCCN)C(=O)N(CCC(=O)N[C@@H](CCCCNC(=N)N)C(=O)N(CCC(=O)N[C@@H](CCCCN)C(=O)N(CCC(N)=O)[C@@H](C)c1ccccc1)[C@@H](C)C1CCCCC1)[C@@H](C)c1ccccc1)[C@@H](C)C1CCCCC1)[C@@H](C)c1ccccc1)[C@@H](C)C1CCCCC1` [Compound 5, Ac-[hArg-βNsce-Lys-βNspe]3-NH2], the “Reduction in viable bacteria (time-kill)” value in series [1] is given as 3 log. Besides, in series [1] (4× MIC, within 1 h of exposure), the “Reduction in viable cell counts within 1 h” value was “no reduction in viable cell counts”. Moreover, in series [2], the “Resensitization” value is recorded as “this was not the case”. In addition, the “Sensitization … to gentamicin” value in series [2] is listed as “did not sensitize”. Besides, the “Synergy with conventional antibiotics” value in [2] was “no synergy”. Besides, the Minimum inhibitory concentration in [3] was 2 µg/mL (≈ 0.988 µM); in [4], 2 µg/mL (≈ 0.988 µM); in [5], 2 µg/mL (≈ 0.988 µM); in [6], 2 µg/mL (≈ 0.988 µM); in [10], 8 to 16 µg/mL; in series [11], 8 to 16 µg/mL. Further, the hemolysis at 60 min, 400 µg/mL in series [7] was < 10%. For the same compound, the “Propidium iodide (PI) uptake” value in series [8] is “less perturbation of membrane integrity”. Besides, in series [9], the “HepG2 IC50” value is on record as 73 µg/mL.

`CCCCCCCC(=O)N[C@@H](CCCCN)C(=O)N(CCC(=O)N[C@@H](CCCCN)C(=O)N(CCC(=O)N[C@@H](CCCCN)C(=O)N(CCC(=O)N[C@@H](CCCCN)C(=O)N(CCC(=O)N[C@@H](CCCCN)C(=O)N(CCC(=O)N[C@@H](CCCCN)C(=O)N(CCC(N)=O)[C@@H](C)c1ccccc1)[C@@H](C)c1ccccc1)[C@@H](C)c1ccccc1)[C@@H](C)c1ccccc1)[C@@H](C)c1ccccc1)[C@@H](C)c1ccccc1` [Compound 10, Oct-[Lys-βNspe]6-NH2]: in series [1], the “Reduction in viable bacteria (time-kill)” value worked out at 5 log. In addition, the “Resensitization” value in series [2] is given as “this was not the case”. Further, in [2], the “Sensitization … to gentamicin” value is recorded as “did not sensitize”. In series [2], the “Synergy with conventional antibiotics” value is “no synergy”. Moreover, the Minimum inhibitory concentration is 2 to 4 µg/mL in [3]; 2 to 4 µg/mL in series [4]; 4 µg/mL (≈ 2.04 µM) in series [5]; 4 µg/mL (≈ 2.04 µM) in series [6]; 16 µg/mL (≈ 8.15 µM) in series [10]; 8 µg/mL (≈ 4.07 µM) in [11]. Besides, the hemolysis at 60 min, 400 µg/mL in series [7] was < 10%. In addition, the “Propidium iodide (PI) uptake” value in series [8] is “less perturbation of membrane integrity”. In addition, in series [9], the “HepG2 IC50” value is listed as 41 µg/mL.
